Earlier results as cited in patent US8637296B2, “Lactobacillus helveticus strains for producing hypotensive peptides” (Nestec S.A., priority 2008, dated 2014).

Biological target: angiotensin converting enzyme (ACE) (Homo sapiens, UniProt P12821)
Sequence (P12821 30-1306, species assumed): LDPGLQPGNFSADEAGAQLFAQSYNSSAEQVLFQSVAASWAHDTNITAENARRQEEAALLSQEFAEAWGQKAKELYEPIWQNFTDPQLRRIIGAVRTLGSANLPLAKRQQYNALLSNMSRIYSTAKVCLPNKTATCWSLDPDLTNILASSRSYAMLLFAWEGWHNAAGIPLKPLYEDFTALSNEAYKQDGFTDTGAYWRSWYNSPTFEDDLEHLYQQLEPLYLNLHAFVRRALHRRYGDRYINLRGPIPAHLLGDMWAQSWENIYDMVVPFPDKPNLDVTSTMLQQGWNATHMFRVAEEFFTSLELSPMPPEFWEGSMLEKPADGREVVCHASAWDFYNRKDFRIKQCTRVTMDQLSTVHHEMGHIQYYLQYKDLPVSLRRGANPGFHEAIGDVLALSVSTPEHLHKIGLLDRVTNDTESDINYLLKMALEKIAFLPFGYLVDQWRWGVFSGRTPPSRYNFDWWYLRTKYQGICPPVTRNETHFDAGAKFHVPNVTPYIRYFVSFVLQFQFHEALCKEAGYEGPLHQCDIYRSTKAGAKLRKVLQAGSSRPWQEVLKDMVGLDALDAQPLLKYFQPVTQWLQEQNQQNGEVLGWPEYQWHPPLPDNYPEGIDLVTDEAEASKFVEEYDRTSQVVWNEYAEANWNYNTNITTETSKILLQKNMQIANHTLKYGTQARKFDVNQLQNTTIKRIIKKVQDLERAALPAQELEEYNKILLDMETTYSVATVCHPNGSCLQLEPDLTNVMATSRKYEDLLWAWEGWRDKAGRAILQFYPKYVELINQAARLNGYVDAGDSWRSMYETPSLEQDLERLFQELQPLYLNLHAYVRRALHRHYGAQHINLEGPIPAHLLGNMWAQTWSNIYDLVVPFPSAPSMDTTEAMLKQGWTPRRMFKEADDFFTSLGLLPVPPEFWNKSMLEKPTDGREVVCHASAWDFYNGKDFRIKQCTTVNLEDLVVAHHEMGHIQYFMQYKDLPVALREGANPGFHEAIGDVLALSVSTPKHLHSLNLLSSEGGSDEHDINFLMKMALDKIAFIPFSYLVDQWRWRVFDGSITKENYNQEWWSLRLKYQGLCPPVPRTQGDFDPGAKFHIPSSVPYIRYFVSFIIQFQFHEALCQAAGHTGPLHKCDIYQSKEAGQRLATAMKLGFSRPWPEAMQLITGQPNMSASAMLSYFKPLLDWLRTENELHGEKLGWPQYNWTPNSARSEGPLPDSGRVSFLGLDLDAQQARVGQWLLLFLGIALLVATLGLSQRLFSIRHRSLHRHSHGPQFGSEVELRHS

Row | SMILES | inhibition of angiotensin converting enzyme (ACE)
1 | CC[C@H](C)[C@H](N)C(=O)N1CCC[C@H]1C(=O)N1CCC[C@H]1C(=O)O [IPP, isoleucyl-prolyl-proline] | inhibit
2 | CC(C)[C@H](N)C(=O)N1CCC[C@H]1C(=O)N1CCC[C@H]1C(=O)O [VPP, valyl-prolyl-proline] | inhibit
